Laboratory results published in patent publication US20030226158A1, “Cds1 knockout cells and mice, and their utilization” (priority 2000, published 2003).

Tested on: p53 protein
Assay: X-ray irradiation-induced p53 protein expression in ES cells, western blotting
Type: cell-based, mouse
Conditions: X-ray irradiated, western blotting with antibody against p53
Experimental: The analysis was done by western blotting.
ES cell lines in which one or both Cds1 (Chk2) alleles were inactivated (Cds1 (Chk2)+/− and Cds1 (Chk2)−/−) were treated with trypsin and counted. Then, a constant number of ES cells were plated in 6-well plates in which feeder cells had been planted in advance. MEF (mouse embryonic fibroblast) was used as feeder cells. The cells were treated with X ray and cultured in an CO2 incubator for 6 hours. Then, a cell extract was prepared, the proteins were separated by SDS-PAGE, and transferred to a PVDF membrane. p53 protein was quantified by conducting western blotting using an antibody against p53.

## Cn1c(=O)c2c(ncn2C)n(C)c1=O [caffeine]
Cds1-/- ES cells
  induction of p53 expression after irradiation: inhibited
Wild type ES cells
  induction of p53 expression after irradiation: inhibited
